For data set [1] the following is noted: two compartment model, nonlinear regression fit.
For data set [2] the following is noted: man and rodents; cited from earlier work.
Another data set can be described thus: in vivo. Particulars: Sprague Dawley, rat, intravenous, 10 mg DTX equivalent/kg.
The conditions of data set [3]: rat, in vivo.
For data set [4] the following is noted: rat, in vivo. The source holds these as a separate data set.
The conditions of data set [5]: rat, in vivo. This is another data set of the same source.

Some results are limits rather than exact numbers.

The values that follow come from article PMC3788091 (Journal of controlled release : official journal of the …, 2013).

What is called clearance is the rate of elimination divided by the concentration. As usually defined, the Km is the concentration of substrate that gives half-maximal velocity.

Consider `CC(=O)O[C@@]12CO[C@@H]1C[C@H](O)[C@@]1(C)C(=O)[C@H](O)C3=C(C)[C@@H](OC(=O)[C@H](O)[C@@H](NC(=O)OC(C)(C)C)c4ccccc4)C[C@@](O)([C@@H](OC(=O)c4ccccc4)[C@H]21)C3(C)C` [DTX, Docetaxel], for which, in data set [1], the “CLD (distribution clearance)” value was 2202 mL/h; the “VC (volume of the central compartment)” value is given as 760 mL; the “VP (volume of the peripheral compartment)” value came to 5811 mL; the “Vmax (nonlinear clearance, all remaining routes)” value was determined as 391464 ng/h. Moreover, the “renal clearance contribution to DTX clearance” value in data set [2] is less than 10%. Also, in the data set “in vivo” (plasma and bile), the clearance is 3.53 mL/min. Also, in “in vivo” (plasma), the Km was found to be 0.124 µg/mL.
On to Taxotere, for which, in data set [3], the “tissue distribution phase half-life (t1/2)” value is listed as ~ 30 min. In addition, in data set [3] (iv), the CL came out at 86.7 mL/min/kg, the “V (apparent volume of distribution)” value worked out at 3.401 L/kg and the “t1/2 (terminal elimination half-life)” value stood at 3 h. Moreover, the “percentage of the total 8h biliary metabolites excreted as HDTX (%HDTX)” value in data set [4] is on record as 82±12%. Further, the “cumulative 24h urinary DTX excretion” value in data set [5] stood at 2.36 ± 0.98 % injected dose.
